Source: patent US20180161310A1, “COMPOUNDS AND METHODS FOR THE TREATMENT OF NEUROLOGICAL DISORDERS” (Teleos Therapeutics, LLC, priority 2016, published 2018)
Where “and” joins values, the source holds several entries; their conditions need not be identical. Equal entries are not always repeated.

Experiments:
human KCC2 = biological target: T1, human KCC2 (Homo sapiens, UniProt Q9H2X9); experiment: Thallium flux assay in HEK293 cells transiently transfected with human KCC2; assay type: cell-based; conditions: HEK293 cells over-expressing human KCC2
T1 construct: expressed in transfected cells; host or cells: HEK293
T1 sequence (Q9H2X9 1-1139): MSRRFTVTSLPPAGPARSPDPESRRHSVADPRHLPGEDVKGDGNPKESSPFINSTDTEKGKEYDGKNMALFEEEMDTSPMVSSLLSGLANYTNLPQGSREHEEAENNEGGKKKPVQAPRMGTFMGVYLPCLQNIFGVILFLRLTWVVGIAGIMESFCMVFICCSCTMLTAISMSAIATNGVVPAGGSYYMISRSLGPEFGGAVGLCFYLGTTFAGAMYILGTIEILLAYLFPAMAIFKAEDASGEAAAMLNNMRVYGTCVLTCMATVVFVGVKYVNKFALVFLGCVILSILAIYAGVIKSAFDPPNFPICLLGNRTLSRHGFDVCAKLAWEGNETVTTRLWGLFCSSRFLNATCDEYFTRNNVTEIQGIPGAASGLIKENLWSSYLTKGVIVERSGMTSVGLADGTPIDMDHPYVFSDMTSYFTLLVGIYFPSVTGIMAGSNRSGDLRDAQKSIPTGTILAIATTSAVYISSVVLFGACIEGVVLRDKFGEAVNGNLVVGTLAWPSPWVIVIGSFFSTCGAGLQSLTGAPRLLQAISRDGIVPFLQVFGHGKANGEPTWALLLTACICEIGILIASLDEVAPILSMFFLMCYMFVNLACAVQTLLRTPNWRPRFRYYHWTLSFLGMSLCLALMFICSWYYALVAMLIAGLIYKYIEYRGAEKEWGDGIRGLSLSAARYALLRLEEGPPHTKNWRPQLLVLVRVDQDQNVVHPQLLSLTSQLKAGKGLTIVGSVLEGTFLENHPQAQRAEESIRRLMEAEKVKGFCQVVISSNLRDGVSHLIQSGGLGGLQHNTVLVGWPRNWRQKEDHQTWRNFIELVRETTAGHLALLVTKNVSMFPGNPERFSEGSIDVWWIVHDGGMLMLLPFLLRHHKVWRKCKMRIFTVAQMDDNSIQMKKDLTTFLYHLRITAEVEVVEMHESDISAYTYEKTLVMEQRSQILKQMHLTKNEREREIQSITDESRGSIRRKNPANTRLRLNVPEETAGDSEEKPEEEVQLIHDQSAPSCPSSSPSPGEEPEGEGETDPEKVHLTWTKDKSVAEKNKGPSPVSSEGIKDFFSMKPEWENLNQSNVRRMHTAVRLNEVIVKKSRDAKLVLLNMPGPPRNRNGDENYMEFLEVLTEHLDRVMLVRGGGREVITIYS
Procedure: Phenotype-based screens, as described herein, are high-content and make use of complex behaviors to identify novel modulators, which may function through various mechanisms. Thus, hits identified in the suppressor screens described herein may or may not act directly on KCC2. To test whether the three hit compounds directly alter the activity of the transporter, thallium flux assays were performed in HEK293 cells transiently transfected with human KCC2 in order to measure the influx rate of KCC2 activity (see, e.g., Appendix B).

zebrafish larvae = assay type: in vivo
Text: In an effort to determine how pharmacological inhibition of KCC2 affects zebrafish behaviors, 7 days post-fertilization (dpf) zebrafish larvae can be treated with two analogs of the selective KCC2 inhibitor, VU0463271 and VU0240551, and their behavioral responses in a battery of behavioral assays can be assessed. These behavioral assays can include a series of visual and acoustic stimuli presented to larval zebrafish in various contexts and combinations to elicit robust and reproducible patterns of activity. For example, behavioral assays can include two acoustic-stimulus-response (ASR1 and ASR2) assays, six visual-stimulus-response (VSR1-VSR6) assays, and three assays that combine acoustic and visual stimulus responses (AVSR1-AVSR3). Together, such a battery of behavioral assays use six stimuli, including red light (600 nm), blue light (420 nm), violet light (405 nm), green light (525 nm), low-intensity sound (60 dB) and high-intensity sound (70 dB). Behavioral responses of the larval zebrafish can be measured by a motion index (MI) that quantifies the motor activity of at least about 8 zebrafish larvae in each well of a 96-well plate.
Referring to FIGS. 1A-1B, zebrafish behavioral profiles can include a battery of individual behavioral assays labeled ASR1, AVSR1, ASR2, VSR1, VSR2, VSR3, VSR4, AVSR2, VSR5, AVSR3, and VSR6, as described herein. These behavioral assays can be combined to form a Motion Index (MI), which is a quantification of the motor activity of at least about 8 zebrafish larvae in each well of a 96-well plate. As shown in the representative images of FIGS. 1A-1B, zebrafish larvae were treated with DMSO (control), VU0463271 (FIG. 1A), or pentylentetrazol or PTZ (FIG. 1B).
Treatment with increasing doses of VU0463271 induced a unique and dose-dependent profile of behavioral responses, detectable at 2.5 μM and 5 μM. […] This relatively low concentration of VU0463271 elicited a reproducible behavioral profile with altered sensitivity of the fish larvae to specific combinations of stimuli. […] The increased MI in the AVSR1 and AVSR3 assays due to VU0463271 treatment reflects a seizure-like hyperexcitability in the larval fish.
Additionally, seizures have been induced in 7 dpf zebrafish larvae using pentylentetrazol (PTZ) treatment, and motor and electroencephalographic (EEG) responses were consistent with seizure phenotypes.

CCN1C(=O)C=CC1=O [N-ethylmaleimide]
rate of 10 mM [K+]o-induced thallium influx (KCC2-mediated flux) (human KCC2): significantly increased

Cc1csc(N(C(=O)CSc2ccc(-c3ccccc3)nn2)C2CC2)n1 [VU0463271, N-Cyclopropyl-N-(4-methyl-2-thiazolyl)-2-[(6-phenyl-3-pyridazinyl)thio]acetamide]
MI in the ASR2 and VSR assays (zebrafish larvae; 2.5 μM): reduced
behavioral responses in the AVSR1 and AVSR3 assays (zebrafish larvae; 2.5 μM, seizure-like hyperexcitability): increased
effect on MI along the assay battery (zebrafish larvae; 10 μM, very low MI): sedative effect
concentration at which the dose-dependent profile of behavioral responses was detectable (zebrafish larvae; 7 dpf larvae): 2.5 µM and 5 µM
rate of 10 mM [K+]o-induced thallium influx (KCC2-mediated flux) (human KCC2): significantly reduced
